What follows are compounds tested against T1, Butyrylcholinesterase (Rattus norvegicus, UniProt Q9JKC1) (assay: In vitro inhibitory concentration against butyrylcholinesterase (BuChE) obtained from rat plasma).
Type: cell-free

T1 sequence (Q9JKC1 whole entry): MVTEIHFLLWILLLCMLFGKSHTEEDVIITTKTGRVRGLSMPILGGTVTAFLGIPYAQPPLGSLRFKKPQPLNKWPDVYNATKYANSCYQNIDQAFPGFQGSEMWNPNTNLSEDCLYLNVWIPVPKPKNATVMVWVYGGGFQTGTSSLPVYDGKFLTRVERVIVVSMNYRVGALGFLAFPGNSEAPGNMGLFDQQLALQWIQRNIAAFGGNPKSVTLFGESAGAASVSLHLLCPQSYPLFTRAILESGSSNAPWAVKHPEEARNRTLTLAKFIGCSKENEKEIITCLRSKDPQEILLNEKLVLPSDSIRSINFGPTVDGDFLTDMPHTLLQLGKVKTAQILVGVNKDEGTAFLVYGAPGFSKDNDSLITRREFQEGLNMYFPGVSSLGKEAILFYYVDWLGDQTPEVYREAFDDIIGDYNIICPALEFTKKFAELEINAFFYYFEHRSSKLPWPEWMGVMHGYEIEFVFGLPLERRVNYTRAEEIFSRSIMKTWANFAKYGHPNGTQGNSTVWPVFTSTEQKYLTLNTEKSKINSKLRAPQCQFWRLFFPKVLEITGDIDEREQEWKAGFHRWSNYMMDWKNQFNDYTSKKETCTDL

Compound | IC50
CNC(=O)Oc1ccc2c(c1)[C@]1(C)CCN(C)[C@@H]1N2C [PHYSOSTIGMINE] | 8.1 nM

Each compound was assayed against T1, Butyrylcholinesterase (assay: not given).

Compound | IC50
O=C(Nc1ccc2c(c1)C(=O)N(CCC1CCN(Cc3ccccc3)CC1)C2=O)c1ccccc1 | 42300 nM

The compounds below were run against T2, Acetylcholinesterase (Mus musculus, UniProt P21836) (assay: biochemical).
T2 sequence (P21836 whole entry): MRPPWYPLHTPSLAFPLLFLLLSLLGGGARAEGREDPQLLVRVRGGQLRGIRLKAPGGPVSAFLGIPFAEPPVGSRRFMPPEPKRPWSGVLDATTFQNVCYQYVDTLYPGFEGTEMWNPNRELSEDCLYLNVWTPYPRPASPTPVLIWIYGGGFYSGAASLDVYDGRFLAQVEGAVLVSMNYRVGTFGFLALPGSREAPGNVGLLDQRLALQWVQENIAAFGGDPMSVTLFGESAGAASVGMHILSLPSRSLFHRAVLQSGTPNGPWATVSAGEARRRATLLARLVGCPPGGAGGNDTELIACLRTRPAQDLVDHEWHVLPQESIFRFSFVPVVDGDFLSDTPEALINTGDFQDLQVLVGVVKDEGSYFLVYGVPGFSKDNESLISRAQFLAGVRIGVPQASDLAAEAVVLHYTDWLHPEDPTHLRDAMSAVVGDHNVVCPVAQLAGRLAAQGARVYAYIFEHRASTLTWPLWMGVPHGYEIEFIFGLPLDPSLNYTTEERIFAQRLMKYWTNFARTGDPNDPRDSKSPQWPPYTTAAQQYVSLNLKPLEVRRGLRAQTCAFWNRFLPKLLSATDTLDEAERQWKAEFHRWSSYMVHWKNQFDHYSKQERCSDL
Description: In vitro inhibitory concentration against acetylcholinesterase (AChE) obtained from mouse brain homogenate.

Compound | IC50
CC(=O)N(CCC1CCN(Cc2ccccc2)CC1)c1ccc(F)cc1 | 205 nM
O=C1c2ccccc2CN1CCC1CCN(Cc2ccccc2)CC1 | 98 nM
COc1cccc(N(CCC2CCN(Cc3ccccc3)CC2)C(C)=O)c1 | 46 nM
CC(=O)N(C)CCC1CCN(Cc2ccccc2)CC1 | 660 nM
O=C1CCCCN1CCC1CCN(Cc2ccccc2)CC1 | 270 nM
O=C1c2ccc([N+](=O)[O-])cc2C(=O)N1C1CCN(Cc2ccccc2)CC1 | 27000 nM
O=C(c1ccc([N+](=O)[O-])cc1)N(CCC1CCN(Cc2ccccc2)CC1)c1ccccc1 | 5.4 nM
CC(=O)N(CCC1CCN(Cc2ccccc2)CC1)c1cccc(F)c1 | 65 nM
O=C1c2ccc([N+](=O)[O-])cc2C(=O)N1CC1CCN(Cc2ccccc2)CC1 | 3000 nM
c1ccc(CN2CCC(CCN3CCc4ccccc4C3)CC2)cc1 | 1600 nM
CCC(=O)N(CCC1CCN(Cc2ccccc2)CC1)c1ccccc1 | 830 nM
CC(=O)N(CCC1CCN(Cc2ccccc2)CC1)c1ccncc1 | 108 nM
CN1CCC(CCN2C(=O)c3ccc([N+](=O)[O-])cc3C2=O)CC1 | 6800 nM
O=C(Nc1cccc2c1C(=O)N(CCC1CCN(Cc3ccccc3)CC1)C2=O)c1ccccc1 | 340 nM
O=C1c2ccc([N+](=O)[O-])cc2C(=O)N1CCC1CCN(Cc2ccccc2)CC1 | 12.5 nM
O=C1Cc2ccccc2C(=O)N1CCC1CCN(Cc2ccccc2)CC1 | 23 nM
CN(CCC1CCN(Cc2ccccc2)CC1)C(=O)c1ccc(S(=O)(=O)Cc2ccccc2)cc1 | 0.56 nM
O=C(Nc1ccc2c(c1)C(=O)N(CCC1CCN(Cc3ccccc3)CC1)C2=O)c1ccccc1 | 1.2 nM
Nc1cccc2c1C(=O)N(CCC1CCN(Cc3ccccc3)CC1)C2=O | 11 nM
O=c1c2ccccc2ccn1CCC1CCN(Cc2ccccc2)CC1 | 1100 nM
O=C1c2ccc([N+](=O)[O-])cc2C(=O)N1CCC1CCN(Cc2ccc(Cl)cc2)CC1 | 240 nM
COc1ccc(CN2CCC(CCN3C(=O)c4ccc([N+](=O)[O-])cc4C3=O)CC2)cc1 | 440 nM
COc1ccc(C(=O)N(CCC2CCN(Cc3ccccc3)CC2)c2ccccc2)cc1 | 590 nM
O=c1c2ccccc2ncn1CCC1CCN(Cc2ccccc2)CC1 | 1200 nM
COc1ccc(N(CCC2CCN(Cc3ccccc3)CC2)C(C)=O)cc1 | 700 nM
O=C1c2ccccc2C(=O)N1CCC1CCN(Cc2ccccc2)CC1 | 30 nM
CNC(=O)Oc1ccc2c(c1)[C@]1(C)CCN(C)[C@@H]1N2C [PHYSOSTIGMINE] | 0.69 nM
O=C(C1CCCCC1)N(CCC1CCN(Cc2ccccc2)CC1)c1ccccc1 | 9400 nM
